# Experimental data from patent US5446157A, “Boron difluoride compounds useful in photodynamic therapy and production of laser light” (priority 1993, dated 1995).
# Entries after “also recorded” stand apart in the source; their conditions may differ. Structures can show the parent of a compound that is named as a salt.
# Legend:
# [1] = system: metastatic breast cancer spread to the chest wall; experiment: Topical photodynamic treatment of metastatic breast cancer of the chest wall, case history; type: in vivo, patient
# Description: The following case history also illustrates topical application of one of the compounds of the present invention in a person with a 12-year history of metastatic breast cancer spread to the chest wall. The patient had been treated with combinations of numerous chemotherapeutic agents and radiation therapy. Their cancer continued to progress and they received nine weekly treatments with a topical 0.3% solution of 1,3,5,7,8-pentamethylpyrromethene boron difluoride-2,6-disulfonate (PMPDS-BF2) in dimethylsulfoxide applied to the chest wall lesions followed by exposure to a General Electric sunlamp for ten minutes. The patient had initially a greater than 50% shrinkage of their tumor, which lasted over nine weeks.
# [2] = system: breast tumors; experiment: Photodynamic therapy of DMBA-induced breast tumors, intratumor injection (Table VIII); type: in vivo, female Sprague Dawley rats; settings: for COMPLETE RESPONSE (ANIMALS) / FINAL TOTAL TUMOR NO. / FINAL MEAN TUMOR VOLUME: four weeks
# Experimental: Breast tumors were induced in fifty-day-old female Sprague Dawley rats by the oral feeding of dimethylbenzanthracene (DMBA) in peanut oil. Individual rats were fed 10 mg DMBA per 100 g body weight via gavage tubes. Palpable tumors developed 45 to 92 days after feeding. […] Following tumor development, tumors were measured and injected with PMPDS-BF2 dissolved in saline ([…] was injected into the center of the tumors to a concentration of 20 μg/cm^3 of tumor volume. Twenty-four hours after intratumor injection, the rats were anesthetized using phenobarbital (2 mg/kg i.p.) and the injected tumors were exposed to light from either a quartz lamp (100 or 250 w) or an argon laser (with 488/514 and 628 nm frequencies) for 10-20 minutes. Also included in this experiment were three control groups: (1) saline injected, unirradiated tumors; (2) saline injected, irradiated tumors; (3) PMPDS-BF2 injected, and unirradiated tumors.
# [3] = P-BF2 dyes dispersed in acrylic co-polymer (solid-state laser)
# Description: Any laser dye of the present invention may be substituted for the dye in any of the examples of that incorporated patent. The matrix generally includes solid polymeric host laser rods prepared using bulk polymerization of acrylic acid ester comonomers.
# [4] = Photostability under irradiation with 250 watt sun lamp; type: physicochemical; settings: sun lamp, in M-1cm-1 (unit assumed)
# Experimental: In addition, experiments were conducted in order to determine the photostability of the product of Example I. A solution was prepared by mixing 0.1 g of the product with 50 ml of dichloromethane solvent. The solution was placed in a 100 ml round bottom flask and irradiated with light from a sun lamp (250 watts at a distance of approximately 8 inches from the flask). […] However, another solution was made by combining 0.1 g of product in 250 ml of CH3 OH and 10 ml of CH2 Cl2. Addition of the CH2 Cl2 was undertaken to obtain complete dissolution. The solution was placed in a […] and irradiated as described above. […] Thus, the use of different solvents will cause a variation in both the character and duration of fluorescence.
# In addition, a further test was conducted in order to determine the photostability of the product. Specifically, 2.0 mg of the product in a 100 ml round bottom flask was dissolved in 50 ml of H2 O. The solution was then irradiated by light from a 250 watt sun lamp placed approximately 8 inches from the flask. UV spectral data was recorded periodically as shown below in Table III.
# [5] = system: human ovarian tumor cells; experiment: Photodynamic growth inhibition of human ovarian cancer cells in vitro (soft agar); type: cell-based
# Experimental: 1,3,5,7,8-pentamethylpyrromethene-boron difluoride-2,6-disodium disulfonate salt (PMPDS-BF2) and bimane diphosphonate were prepared according to previously described methods.
# Human ovarian cells from fifteen individual patients were evaluated. All cancers were epithelial originating ovarian adenocarcinomas. Each cancer had been passed through at least one culture in RPMI-1640 (10% FBA) medium prior to use in the present study. In each case cells were harvested and washed in RPMI-1640 medium and resuspended in concentrations of 2.6×10^6 cells/ml at 5° C. The cells (2.6×10^6 cells/ml) were then incubated in a RPMI-1640 growth medium (containing 10% fetal bovine […], penicillin 100 U/ml and streptomycin 100 μg/ml) pH, 7.4 with graded doses of PMPDS-BF2 complex for 30 minutes at 37° C. in a 5% CO2 /air incubator with gentle shaking. The three concentrations of PMPDS-BF2 evaluated in this study were 0.004 μg, 0.04 μg, and 0.4 μg/ml of medium. The cell suspension was then washed with cold RPMI-1640 medium to remove extracellular PMPDS-BF2 complex, and then the cells were resuspended in fresh RPMI growth medium. Fifteen (15) ml portions of the cell suspensions (2.6×10^6 cells/ml) were irradiated in glass tubes at 37° C. in room air over a 10-20 minute period using a General Electric sun lamp. Controls were cells exposed to PMPDS-BF2 with no light exposure, cells with light exposure alone and cells with neither exposure to light nor chemicals.
# Under identical conditions as above, bimane diphosphonate was evaluated for cytotoxic activities in the presence and absence of light. After the above incubations with PMPDS-BF2 or bimanes±light as controls, melted Bacto-agar (Difco Laboratories, Inc., Detroit, Mich.) was added to the cell suspensions to a final concentration of 0.3% agar. The mixtures were plated in 35 mm plastic tissue culture dishes on a feeder layer containing an enriched McCoy's 5A medium and 0.5% agar with the addition of 2-mercaptoethanol (5 mM) and DEAE-dextran. The seeding density for the cells in this study was kept between 1-5×10^4 cells per dish and the plates incubated at 37° C. in a CO2 incubator. Incubation was continued for another 2-3 weeks and the plates examined under an inverted phase contrast microscope and cells counted. Since these cells grow as tight aggregates in soft-agar, it was impossible to determine the number of cells in each growth. Instead, an ocular micrometer was used to count colonies 30 μm or larger in size. Plating efficiency, defined as the number of colonies formed per 100 viable cells plated, was compared between groups.
# [6] = topical 0.3% solution in dimethylsulfoxide, sunlamp ten minutes
compound,measurement,setting,value
"CC1=C(S(=O)(=O)O)C(C)=[N+]2C1=C(C)c1c(C)c(S(=O)(=O)O)c(C)n1[B-]2(F)F [PMPDS-BF2, Disodium salt of 4,4-difluoro-1,3,5,7,8-pentamethyl-4-bora-3a,4a-diaza-s-indacene-2,6-disulfonic acid monohydrate]",shrinkage of tumor,"[1]; topical 0.3% solution in dimethylsulfoxide, nine weekly treatments, sunlamp ten minutes",greater than 50%
same,duration of tumor shrinkage,[1]; [6],over nine
same,toxic reactions,[1]; [6],no toxic reactions
same,course after nine week shrinkage,"[1]; topical 0.3% solution, after nine weeks",the metastatic lesions again began to grow
same,COMPLETE RESPONSE (ANIMALS),"[2]; 20 ug/cm^3, no light",2/10
same,FINAL TOTAL TUMOR NO.,"[2]; 20 ug/cm^3, no light, initial 12",13
same,FINAL MEAN TUMOR VOLUME,"[2]; 20 ug/cm^3 intratumor plus light (quartz lamp 100 watt, 20 min), initial 0.3",0.1 cm^3
same,FINAL MEAN TUMOR VOLUME,"[2]; 20 ug/cm^3 intratumor, no light, initial 0.2",0.7 cm^3
same,COMPLETE RESPONSE (ANIMALS),[2]; 20 ug/cm^3 plus light,7/10
same,FINAL TOTAL TUMOR NO.,"[2]; 20 ug/cm^3 plus light, initial 14",3
same,tumor necrosis,[2]; injected and irradiated,Tumor necrosis was observed
same,tumor remission,[2]; injected and irradiated,50-100%
same,necrosis or remission,"[2]; injected, not irradiated",no necrosis or remission
same,solubility in the polymer matrix,[3],particularly soluble
same,ε492 (H2O),"[4]; 2.0 mg in 50 ml H2O, 0 hours","76,995.38"
same,ε492 (H2O),"[4]; H2O, 0.5 hours","76,755.22"
same,ε492 (H2O),"[4]; H2O, 1.0 hours","75,556.52"
same,ε492 (H2O),"[4]; H2O, 1.5 hours","76,755.52"
same,ε492 (H2O),"[4]; H2O, 2.5 hours","75,316.35"
same,ε492 (H2O),"[4]; H2O, 3.5 hours","73,757.26"
same,ε492 (H2O),"[4]; H2O, 6.0 hours","69,799.55"
same,ε492 (H2O),"[4]; H2O, 20.0 hours","52,049.62"
same,ε492 (H2O),"[4]; H2O, 21.5 hours","51,569.90"
same,ε492 (H2O),"[4]; H2O, 23.5 hours","46,173.05"
same,ε492 (H2O),"[4]; H2O, 25.5 hours","45,573.40"
same,ε492 (H2O),"[4]; H2O, 28.0 hours","41,016.06"
same,ε492 (H2O),"[4]; H2O, 30.5 hours","37,178.46"
same,ε492 (H2O),"[4]; H2O, 44.0 hours","20,388.19"
same,ε492 (H2O),"[4]; H2O, 50.0 hours","13,192.355"
same,ε492 (H2O),"[4]; H2O, 52.5 hours",599.653
same,inhibition in cell growth,[5]; 0.004 μg/ml plus light,40-70%
same,cell morphology,"[5]; 0.004 μg/ml plus light, within 48 hours",pyknotic changes with nuclear fragmentation
same,colonization / morphology of cells,"[5]; 0.04 μg/ml plus light, three days post exposure","unable to colonize, demonstrated pyknotic changes in the nucleus and cytoplasmic discoloration"
same,inhibition of cell growth,[5]; 0.4 μg/ml plus light,100%
same,cytotoxic response without light,"[5]; absence of light exposure, monohydrate",did not demonstrate significant cytotoxic responses; also recorded: did not produce cytotoxicities
